Calls of active or inactive are those of the source. The rule behind the calls is not given here.
Assays:
[1] = target: T1, Short transient receptor potential channel 5 (Homo sapiens) (UniProt Q9UL62); assay: Induction of S-nitrosylation of TRPC5 in HEK cells assessed as increase in Ca2+ level from extracellular space at 5 mM extracellular administration; type: cell-based; details: HEK293
T1 sequence (whole entry): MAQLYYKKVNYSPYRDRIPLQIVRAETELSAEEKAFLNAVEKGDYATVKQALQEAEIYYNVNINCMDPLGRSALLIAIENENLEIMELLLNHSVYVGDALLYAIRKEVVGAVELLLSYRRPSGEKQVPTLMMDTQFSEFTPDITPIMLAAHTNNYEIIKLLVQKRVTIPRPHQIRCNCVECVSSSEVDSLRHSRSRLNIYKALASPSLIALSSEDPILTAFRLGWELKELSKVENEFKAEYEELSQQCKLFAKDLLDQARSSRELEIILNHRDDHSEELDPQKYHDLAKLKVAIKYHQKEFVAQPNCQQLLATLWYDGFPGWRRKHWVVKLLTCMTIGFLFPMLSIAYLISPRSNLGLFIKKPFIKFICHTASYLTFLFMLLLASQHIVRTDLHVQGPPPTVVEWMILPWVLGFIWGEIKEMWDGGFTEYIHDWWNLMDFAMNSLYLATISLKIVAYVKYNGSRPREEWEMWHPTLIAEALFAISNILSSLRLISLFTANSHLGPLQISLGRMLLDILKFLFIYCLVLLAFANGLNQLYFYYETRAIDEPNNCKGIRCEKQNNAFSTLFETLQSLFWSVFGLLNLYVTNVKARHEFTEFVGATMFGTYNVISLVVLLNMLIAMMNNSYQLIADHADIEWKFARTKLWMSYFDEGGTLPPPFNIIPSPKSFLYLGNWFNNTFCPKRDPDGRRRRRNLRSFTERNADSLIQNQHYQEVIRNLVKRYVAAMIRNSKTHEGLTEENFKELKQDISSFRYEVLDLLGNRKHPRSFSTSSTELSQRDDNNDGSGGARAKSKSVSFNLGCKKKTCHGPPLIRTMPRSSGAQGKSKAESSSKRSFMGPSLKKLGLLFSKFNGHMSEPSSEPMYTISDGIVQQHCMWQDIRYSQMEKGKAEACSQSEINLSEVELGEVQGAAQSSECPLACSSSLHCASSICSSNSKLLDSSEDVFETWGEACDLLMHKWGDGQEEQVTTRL

[2] = target: T1, Short transient receptor potential channel 5 (Homo sapiens); assay: Induction of S-nitrosylation of TRPC5 in HEK cells assessed as increase in Ca2+ level from extracellular space at 1 mM; type: cell-based; details: HEK293
[3] = target: T1, Short transient receptor potential channel 5 (Homo sapiens); assay: Induction of S-nitrosylation of TRPC5 in HEK cells assessed as increase in Ca2+ level from extracellular space at 10 uM; type: cell-based; details: HEK293
[4] = target: T1, Short transient receptor potential channel 5 (Homo sapiens); assay: Induction of S-nitrosylation of TRPC5 in HEK cells assessed as increase in Ca2+ level from extracellular space at 50 uM; type: cell-based; details: HEK293
BAEC [5] = assay: Inhibition of NO production in BAEC assessed as inhibition of Ca2+ influx at 300 uM; type: functional, cell-based; details: Bos taurus
BAEC [6] = assay: Inhibition of NO production in BAEC at 300 uM; type: functional, cell-based; details: Bos taurus
DT40 = assay: Induction of P2Y mediated TRPC5 S-nitrosylation in chicken DT40 cells assessed as increase in Ca2+ level from extracellular space at 100 uM in presence of PLC-beta inhibitor U73122; type: cell-based
BAEC [7] = assay: Inhibition of NO production in BAEC assessed as inhibition of Ca2+ influx at 10 mM; type: functional, cell-based; details: Bos taurus
[8] = target: T1, Short transient receptor potential channel 5 (Homo sapiens); assay: Induction of S-nitrosylation of TRPC5 in HEK cells assessed as increase in Ca2+ level from extracellular space at 5 mM; type: cell-based; details: HEK293
BAEC [9] = assay: Inhibition of NO production in BAEC assessed as inhibition of Ca2+ influx at 1 mM; type: functional, cell-based; details: Bos taurus
[10] = target: T1, Short transient receptor potential channel 5 (Homo sapiens); assay: Induction of S-nitrosylation of TRPC5 in HEK cells assessed as inhibition of incorporation of DTNB-2Bio at 30 uM; type: cell-based; details: HEK293

CS(=O)(=O)SCCN
Activity [1]: Active

[NH-]c1c[n+](N2CCOCC2)no1
Activity [2]: Active

O=c1onc2cnc3ccccc3n12
Activity [3]: inactive

c1cc(SSc2ccncc2)ccn1
Activity [4]: Active

C[N+](C)(C)CCSS(C)(=O)=O
Activity [1]: inactive

COC(=O)[C@@H](N)CCCNC(=N)N[N+](=O)[O-]
inhibition (BAEC [5]): Active
inhibition (BAEC [6]): Active

Nc1ncnc2c1ncn2[C@@H]1O[C@H](COP(=O)(O)OP(=O)(O)OP(=O)(O)O)[C@@H](O)[C@H]1O
Activity (DT40): inactive

CC(=O)N[C@@H](CS)C(=O)O
inhibition (BAEC [7]): Active

CC/C(=C\C(=N\O)C(N)=O)C(C)[N+](=O)[O-] (racemic)
Activity [8]: Active

O=C(O)c1cc(SSc2ccc([N+](=O)[O-])c(C(=O)O)c2)ccc1[N+](=O)[O-]
Activity [4]: Active

O=C1O[C@H]([C@@H](O)CO)C(O)=C1O
inhibition (BAEC [9]): Active

O=C(CCCC[C@@H]1SC[C@@H]2NC(=O)N[C@@H]21)NCCCCCNC(=O)c1cc(SSc2ccc([N+](=O)[O-])c(C(=O)NCCCCCNC(=O)CCCC[C@@H]3SC[C@@H]4NC(=O)N[C@@H]43)c2)ccc1[N+](=O)[O-]
Activity [10]: Active

Source: ChEMBL document CHEMBL1250444, “Nitric oxide activates TRP channels by cysteine S-nitrosylation” (Nat Chem Biol, 2006)
